Data from patent US20260232666A1, “COMPOSITIONS AND METHODS FOR INHIBITION OF RAS” (TheRas, Inc., priority 2023, published 2026).

Assays:
[1] = target: T1, GTP-loaded KRAS4b (amino acids 1-169) G12C/C118S protein (Homo sapiens, UniProt P01116, C118S/G12C); assay: Covalent cysteine 12 modification by MALDI-TOF MS, GTP-loaded KRAS G12C; type: binding; settings: 15 minutes reaction time point
T1 construct: KRAS4b (amino acids 1-169) G12C/C118S protein; made in house
Summary of the method: (§1)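 Covalent labelling is scored at 15 min by MALDI-TOF mass spectrometry, using 1 μM protein with compound at a 1:2.5 protein-to-compound ratio at room temperature.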

[2] = target: T2, GDP-loaded KRAS4b (amino acids 1-169) G12C/C118S protein (Homo sapiens, UniProt P01116, C118S/G12C); assay: Covalent cysteine 12 modification by MALDI-TOF MS, GDP-loaded KRAS G12C; type: binding; settings: 15 minutes reaction time point
T2 construct: KRAS4b (amino acids 1-169) G12C/C118S protein; made in house
Summary of the method: as §1

[3] = target: T3, Avi-KRAS G12C (1-169) GppNHp/RAF1 RBD-3×FLAG (52-151) (Homo sapiens, UniProt P01116, G12C); assay: Raf1 RBD-KRAS G12C-GppNHp disruption assay (protein:protein interaction HTRF); type: biochemical
T3 construct: Avi-KRAS G12C (1-169) GppNHp; Avi (N)
Summary of the method: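 HTRF measuring RAF1 RBD binding to GppNHp-loaded KRAS G12C (50 nM) in Tris pH 7.5, 100 mM NaCl, 5 mM MgCl2, 10% DMSO. Compound, KRAS, RBD and detection reagents each added sequentially with 1 h room-temperature incubations; 10-point titration; excitation 320 nm, emission 615 nm; activity as % of DMSO; IC50 derived.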

SMILES | GTP-KRAS G12C percent of modification [1] | GDP-KRAS G12C percent of modification [2] | IC50 [3]
C=CC(=O)N1C2CCC1CN(c1nc(OC[C@@]34CCCN3C[C@H](F)C4)nc3c(F)c(-c4ccc(F)c5sc(N)c(C#N)c45)c(C(F)(F)F)cc13)C2 [Compound 34] | D (percent of modification <10%) | B (50≤percent of modification <70%) | < 500 nM
C=CC(=O)N1C[C@H](N(C)c2nc(OC[C@@]34CCCN3C[C@H](F)C4)nc3c(F)c(-c4ccc(F)c5sc(N)c(C#N)c45)c(C(F)(F)F)cc23)C[C@@H]1C [Compound 108] | B (50≤percent of modification <70%) | B (50≤percent of modification <70%) | < 500 nM
C=CC(=O)N1CC[C@@H](N(CC)c2nc(OC[C@@H]3C[C@@H](OC)CN3C)nc3c(F)c(-c4ccc(F)c5sc(N)c(C#N)c45)c(C(F)(F)F)cc23)[C@H]1C (single isomer, unassigned) [Compound 116] | A (percent of modification ≥70%) | A (percent of modification ≥70%) | < 500 nM
C=CC(=O)N1CC[C@@H](N(C)c2nc(OC[C@@H]3C[C@@H](OC)CN3C)nc3c(F)c(-c4ccc(F)c5sc(N)c(C#N)c45)c(C(F)(F)F)cc23)[C@H]1C (single isomer, unassigned) [Compound 172] | A (percent of modification ≥70%) | A (percent of modification ≥70%) | < 500 nM
C=CC(=O)N1CC[C@@H](N(C)c2nc(OC[C@@]34CCCN3C[C@H](F)C4)nc3cc(-c4ccc(F)c5sc(N)c(C#N)c45)c(C#N)cc23)[C@@H]1CC [Compound 24] | D (percent of modification <10%) | A (percent of modification ≥70%) | < 500 nM
C=CC(=O)N1CC[C@@H](N(C)c2nc(OC[C@@]34CCCN3C[C@H](F)C4)nc3c(F)c(-c4ccc(F)c5sc(N)c(C#N)c45)c(Cl)cc23)[C@H]1CC [Compound 19] | C (10%≤percent of modification <50%) | C (10%≤percent of modification <50%) | < 500 nM

The next lines start with the values.

GTP-KRAS G12C percent of modification [1] | GDP-KRAS G12C percent of modification [2] | IC50 [3] | SMILES
C (10%≤percent of modification <50%) | C (10%≤percent of modification <50%) | < 500 nM | C=CC(=O)N1CCC(N(CC)c2nc(OC[C@@]34CCCN3C[C@H](F)C4)nc3c(F)c(-c4ccc(F)c5sc(N)c(C#N)c45)c(C(F)(F)F)cc23)[C@H]1CC (stereo partly drawn) [Compound 8]
A (percent of modification ≥70%) | A (percent of modification ≥70%) | < 500 nM | C=CC(=O)N1C[C@H](N(C)c2nc(OC[C@@]34CCCN3C[C@H](F)C4)nc3c(F)c(-c4ccc(F)c5sc(N)c(C#N)c45)c(C(F)(F)F)cc23)C[C@H]1C (atropisomer, axis not shown) [Compound 176]
B (50≤percent of modification <70%) | A (percent of modification ≥70%) | < 500 nM | C=CC(=O)N1CC[C@@H](N(C)c2nc(OC[C@@H]3CCCN3C)nc3c(F)c(-c4nc(N)cc(C)c4C(F)(F)F)c(C(F)(F)F)cc23)[C@H]1C [Compound 122]
C (10%≤percent of modification <50%) | A (percent of modification ≥70%) | < 500 nM | C=CC(=O)N1CC[C@@H](N(C)c2nc(OC[C@@H]3C[C@@H](F)CN3C)nc3c(F)c(-c4nc(N)cc(C)c4C(F)(F)F)c(C(F)(F)F)cc23)[C@H]1C [Compound 145]
D (percent of modification <10%) | A (percent of modification ≥70%) | 500 to 5000 nM | C=CC(=O)N1CC[C@@H](N(C)c2nc(OC[C@@]34CCCN3C[C@H](F)C4)nc3cc(-c4ccc(F)c5sc(N)c(C#N)c45)c(F)cc23)[C@@H]1CC [Compound 22]
A (percent of modification ≥70%) | A (percent of modification ≥70%) | < 500 nM | C=CC(=O)N1CC[C@@H](N(CC)c2nc(OC[C@@H]3CC4(CC4)CN3C)nc3c(F)c(-c4ccc(F)c5sc(N)c(C#N)c45)c(Cl)cc23)[C@H]1C (atropisomer, axis not shown) [Compound 120]
